The values that follow come from patent US20250340543A1, “GPR84 ANTAGONISTS AND USES THEREOF” (Liminal BioSciences Limited, priority 2021, published 2025).

What is called inhibition is the drop in the measured response relative to a control, in per cent. A higher inhibition goes with strong suppression.

The target of experiment [1] is T1, GPR84 (Homo sapiens (Human), UniProt Q9NQS5). Particulars: literature (Wang et al. 2006); read-out: potency of GPR84 activation; cited from earlier work.
Target sequence in this assay (Q9NQS5 whole entry, species assumed): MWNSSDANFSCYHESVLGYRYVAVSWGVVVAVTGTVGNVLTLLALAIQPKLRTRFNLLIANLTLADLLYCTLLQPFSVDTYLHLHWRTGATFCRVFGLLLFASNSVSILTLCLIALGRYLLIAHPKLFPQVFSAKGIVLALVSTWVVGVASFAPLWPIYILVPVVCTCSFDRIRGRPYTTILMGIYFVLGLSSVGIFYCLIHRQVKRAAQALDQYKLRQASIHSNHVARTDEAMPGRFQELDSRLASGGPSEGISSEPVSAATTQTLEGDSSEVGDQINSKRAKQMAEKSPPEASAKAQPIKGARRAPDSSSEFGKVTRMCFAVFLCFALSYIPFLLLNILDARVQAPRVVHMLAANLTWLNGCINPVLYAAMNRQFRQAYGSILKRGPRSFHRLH
For another experiment, the system named is neutrophils. Briefly: Neutrophil migration assay (embelin as chemotactic agent, transwell, ATPlite readout). It is filed as cell-based. The note with it: for Human Neutrophil migration inhibition - fold potency to Control Compound: IC50 normalized to GPR84 antagonist Control Compound; for IC50: Neutrophil, human neutrophils, embelin as chemotactic agent, read-out: Human Neutrophil migration inhibition IC50. The protocol: Neutrophil migration assay. After isolation, neutrophils were resuspended in chemotaxis buffer (DMEM supplemented with 10 mM HEPES) at a concentration of 8.9×10^6 cells/ml. In a 96-well plate, 20 μl of compound solution in chemotaxis buffer is added to 180 μl of cell suspension. After incubation at 37° C. for 30 minutes, 75 μL of cell suspension is transferred in the upper chamber of a 5 μm pore size Corning HTS transwell. 235 μL of chemotaxis buffer containing the chemotactic agent (embelin) is added to the lower chamber of the transwell. After a 60-minute incubation time at 37° C. in 5% CO2, the upper chamber of the transwell is removed and the plate is centrifuged at 1500 rpm for 6 minutes. Supernatant is removed and cells resuspended in 100 ul of PBS. ATP content was assessed using ATPlite Luminescence Assay System® according to manufacturer instructions (Perkin Elmer, Buckinghamshire, UK). Briefly, 50 μL of ATPlite buffer and 50 μL of lysis solution is added to the lower chamber of the Transwells. After incubation at room temperature, in the dark with constant agitation for 5 minutes, 150 μL of cell lysate is transferred in a 96 wells white plate and incubated for 10 minutes in the dark. Luminescence is read on a TECAN plate reader, Infinite M1000 (Tecan, Morrisville, NC).
The compound numbers correspond to the compound numbers in Table 1. […] Normalization of the results takes the donor's variation into account.

Experiment [2] deals with T1, GPR84. As to the kind of experiment: Gai biosensor BRET assay (GPR84-mediated activation of Gai, antagonist mode against agonist ZQ-16). Particulars: for IC50: HEK293 cells, 200 nmol/L GPR84 agonist ZQ-16, read-out: hGPR84 IC50; for inhibition at 10 µM: compound tested at 10 μM (concentration code D); for inhibition at 2 µM: compound tested at 2 μM (concentration code A); for inhibition at 25 µM: compound tested at 25 μM (concentration code G). It is filed as cell-based. Summed up:
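Transiently transfected HEK293 cells expressing GPR84, Gαi2-Rluc8, GFP10-Gγ2 and Gβ1, in Tyrode's buffer pH 7.5. Compounds pre-incubated 5 min at 37° C, then 200 nmol/L ZQ-16 for 5 min at room temperature; BRET² with coelenterazine 400A, ligand-promoted net BRET after background and vehicle subtraction.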
Target sequence in this assay (Q9NQS5 whole entry): as the sequence (Q9NQS5 whole entry, species assumed) above
Background: Bioluminescence resonance energy transfer reports proximity on the nanometre scale.

Experiment [3] deals with mouse dextran sodium sulfate-induced chronic inflammatory bowel disease model. The note with it: once-daily doses of 3 and 10 mg/kg, mouse DSS-induced chronic IBD model; cited from earlier work.

Turning to `CCCCCCCCCCCC(=O)O` [lauric acid], on GPR84 [1], the EC50 was 11000 nM.
With `Cc1cc(OCc2ncccn2)cc(=O)n1[C@H](C)c1ccc(C#CC2CC2)cc1` [Compound I-223], in the experiment on neutrophils, the “Human Neutrophil migration inhibition - fold potency to Control Compound” value is listed as “B (IC50 of >0.5-≤1.0-fold relative to Control Compound)” and the IC50 was not above 300 nM. Further, on GPR84 [2], the IC50 is less than 5000 nM and the inhibition at 10 µM is more than 75%.
As for `Cc1cc(OC[C@H]2COc3ccccc3O2)cc(=O)n1Cc1cccc(C#CC2CC2)c1` [Compound I-30], in the experiment with neutrophils, the “Human Neutrophil migration inhibition - fold potency to Control Compound” value is “C (IC50≤0.5-fold relative to Control Compound)” and the IC50 fell in the range of 1000 to 3000 nM. On GPR84 [2], this molecule showed an inhibition at 2 µM of 25 to 50%.
For `Cc1cc(OCC2COCCO2)cc(=O)n1Cc1cccc(C#CC2CC2)c1` (stereo not shown) [Compound I-2], in the experiment on neutrophils, the “Human Neutrophil migration inhibition - fold potency to Control Compound” value was “C (IC50≤0.5-fold relative to Control Compound)” and the IC50 is more than 3000 nM. Moreover, at GPR84 [2], the IC50 was less than 5000 nM and the inhibition at 25 µM was more than 75%.
With `O=c1nc(OC[C@@H]2COCCO2)cc2n1CCc1cc(C#CC3CC3)ccc1-2` [GLPG1205], in experiment [3], the “disease activity index score” value is recorded as “reduced” and the neutrophil infiltration entry is given as “reduced”.
Consider `Cc1cc(OCC2CCCOC2)cc(=O)n1[C@H](C)c1ccc(C#CC2CC2)cc1` (stereo partly shown) [Compound I-222], for which the IC50 in the experiment on neutrophils was in the range of 1000 to 3000 nM. On GPR84 [2], the inhibition at 10 µM was more than 75%.
`Cc1cc(OCc2cccnc2)cc(=O)n1[C@H](C)c1ccc(C#CC2CC2)cc1` [Compound I-272]: on GPR84 [2], the IC50 is less than 5000 nM and the inhibition at 2 µM was more than 75%.
For the molecule `COc1cc(OCC2COCCO2)nc(-c2ccc(OCC(F)(F)F)cc2)c1OC` (stereo not shown) [Compound I-94], on GPR84 [2], the inhibition at 25 µM was less than 25%.
`FC(F)(F)COc1ccc(-c2nc(OCC3COCCO3)cc3c2OCCO3)cc1` (stereo not shown) [Compound I-158] displayed an inhibition at 25 µM on GPR84 [2] of less than 25%.
At GPR84 [2], `Cc1cc(OC[C@@H]2COCCO2)cc(=O)n1Cc1cccc(C#CC2CC2)c1` [Compound I-233] returned an inhibition at 10 µM of 25 to 50%.
Same read-out and setting: for `COc1ccc([C@@H](C)n2c(C)cc(OCC3COCCO3)cc2=O)cc1` (stereo partly shown) [Compound I-218] the value was 25 to 50%.
